These are literature values, as cited in patent US20210268001A1, “USE OF MIOTIC C[…] F2a PRO[…] FOR PREVENTION AND TREATMENT OF MYOPIA” (priority 2018, published 2021).

In series [1] the test system is corneal epithelium epithelial cells.
The test system of another series is cholinergic receptors. Further details: unit not given here. The note with it: reversible acetylcholinesterase inhibitors.

Each structure is given as a SMILES string.

`O=N[O-].[Na+]` [NaNO2]: the “cytotoxic effect on epithelial cells” value in series [1] (high concentration of NO (100 mM NaNO2), over the same period (6 hs)) is on record as “cytotoxic effect”. Further, the “viability of epithelial cells” value in series [1] (low concentrations of NO (1 nM to 1 mM NaNO2), 6 hs after application) is given as “significantly increased”. For the compound `COc1cc2c(cc1OC)C(=O)C(CC1CCN(Cc3ccccc3)CC1)C2` (stereo not shown) [donepezil], the action time entry with cholinergic receptors was “one to two”. As for `CC[N+](C)(C)c1cccc(O)c1` [edrophonium], the action time result with cholinergic receptors was “one to two”.

Regarding `CN(C)C(=O)Oc1cccc([N+](C)(C)C)c1` [neostigmine], the action time result in the series with cholinergic receptors is recorded as “one to two”. For the compound `CN(C)C(=O)Oc1ccc[n+](C)c1` [pyridostigmine], the action time result in the series with cholinergic receptors is “one to two”. With `CCN(C)C(=O)Oc1cccc([C@H](C)N(C)C)c1` [rivastigmine], the action time result in the series with cholinergic receptors is on record as “one to two”.
